Results from patent US20080234262A1 (Wyeth, priority 2007, published 2008).

How the values were obtained:
[1] = molecular target: PI3K (Homo sapiens, UniProt P42336); assay: Fluorescence polarization assay for PI3K; assay type: biochemical; conditions: PI3Kα; read-out: PI3Kα IC50;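 note: PI3K kinase reaction on PIP2 with ATP, 30-60 min, product sensed by GST-GRP with red probe in fluorescence polarization (mP), controls without enzyme and at zero time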
[2] = system: prostate line LNCap; assay: In vitro cell culture growth assay (MTS), LNCap; assay type: cell-based, human; conditions: Homo sapiens, LNCaP, 72 h, LNCap cells, three days after drug treatment;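 note: viable cell density read by absorbance at 490 nm, growth expressed as percent of vehicle-treated cells on the same plate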
[3] = system: breast line MDA468; assay: In vitro cell culture growth assay (MTS), MDA468; assay type: cell-based, human; conditions: Homo sapiens, 72 h, MDA468 cells, three days after drug treatment
In short: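 Three-day drug treatment starting 1 day post-plating; viable cells quantified via MTS metabolism (A490); effect normalised to in-plate vehicle controls as % growth.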

Chain of PI3K (P42336 whole entry): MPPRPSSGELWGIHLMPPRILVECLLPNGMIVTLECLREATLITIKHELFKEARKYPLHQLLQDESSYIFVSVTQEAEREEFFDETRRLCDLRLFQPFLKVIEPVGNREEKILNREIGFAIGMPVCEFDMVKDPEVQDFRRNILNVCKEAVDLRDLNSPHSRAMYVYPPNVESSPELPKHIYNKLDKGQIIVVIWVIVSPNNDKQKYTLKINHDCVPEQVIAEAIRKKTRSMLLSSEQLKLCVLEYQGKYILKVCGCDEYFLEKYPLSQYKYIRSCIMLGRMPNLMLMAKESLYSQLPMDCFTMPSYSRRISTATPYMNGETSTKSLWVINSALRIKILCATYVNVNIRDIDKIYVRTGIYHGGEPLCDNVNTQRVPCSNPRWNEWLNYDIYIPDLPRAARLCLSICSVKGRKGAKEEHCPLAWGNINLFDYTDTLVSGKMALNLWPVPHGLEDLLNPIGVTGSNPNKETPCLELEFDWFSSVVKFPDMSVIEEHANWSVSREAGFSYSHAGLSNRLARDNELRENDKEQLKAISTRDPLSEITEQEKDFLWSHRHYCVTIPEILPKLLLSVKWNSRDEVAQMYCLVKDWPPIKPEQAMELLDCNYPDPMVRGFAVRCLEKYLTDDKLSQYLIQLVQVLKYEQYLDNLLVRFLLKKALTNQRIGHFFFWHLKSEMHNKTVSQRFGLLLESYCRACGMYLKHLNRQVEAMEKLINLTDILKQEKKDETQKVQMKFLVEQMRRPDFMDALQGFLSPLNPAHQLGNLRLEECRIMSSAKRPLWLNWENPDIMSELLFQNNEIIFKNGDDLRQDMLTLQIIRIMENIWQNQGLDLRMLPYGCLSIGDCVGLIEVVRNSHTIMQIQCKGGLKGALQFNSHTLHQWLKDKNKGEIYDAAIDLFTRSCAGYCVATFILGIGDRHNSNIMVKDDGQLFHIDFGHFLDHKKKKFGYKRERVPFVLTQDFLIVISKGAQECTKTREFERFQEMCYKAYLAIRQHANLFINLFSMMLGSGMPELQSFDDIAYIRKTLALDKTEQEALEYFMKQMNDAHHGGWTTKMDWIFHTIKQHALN
Chain of PI3K (P27986 whole entry partner): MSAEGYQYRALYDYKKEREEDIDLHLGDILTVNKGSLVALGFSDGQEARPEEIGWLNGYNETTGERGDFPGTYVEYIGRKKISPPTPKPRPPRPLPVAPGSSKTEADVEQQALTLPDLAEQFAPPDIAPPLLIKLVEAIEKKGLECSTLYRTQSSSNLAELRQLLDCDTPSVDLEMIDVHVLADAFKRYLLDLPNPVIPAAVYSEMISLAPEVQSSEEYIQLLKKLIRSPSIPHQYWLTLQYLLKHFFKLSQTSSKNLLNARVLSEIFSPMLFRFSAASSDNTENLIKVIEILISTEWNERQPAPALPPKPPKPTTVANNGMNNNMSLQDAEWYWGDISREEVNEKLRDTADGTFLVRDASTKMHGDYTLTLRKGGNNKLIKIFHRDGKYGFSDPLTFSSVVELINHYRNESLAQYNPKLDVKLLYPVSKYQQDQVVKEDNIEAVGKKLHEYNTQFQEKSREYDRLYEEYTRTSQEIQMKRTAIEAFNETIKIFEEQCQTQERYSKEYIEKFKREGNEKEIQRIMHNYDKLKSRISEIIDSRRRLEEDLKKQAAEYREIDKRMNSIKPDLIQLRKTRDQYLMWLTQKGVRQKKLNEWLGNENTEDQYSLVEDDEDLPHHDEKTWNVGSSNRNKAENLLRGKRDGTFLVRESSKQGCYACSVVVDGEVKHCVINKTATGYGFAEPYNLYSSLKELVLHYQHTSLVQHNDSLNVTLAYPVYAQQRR

Row | Compound | IC50 [1] [nM] | IC50 [2] [nM] | IC50 [3] [nM]
1 | CNC(=NC#N)Nc1ccc(-c2nc(N3CCOCC3)c3cnn(C4CCN(Cc5cccnc5)CC4)c3n2)cc1 [Example 407, 2-cyano-1-methyl-3-(4-{4-morpholin-4-yl-1-[1-(pyridin-3-ylmethyl)piperidin-4-yl]-1H-pyrazolo[3,4-d]pyrimidin-6-yl}phenyl)guanidine] | 774 | 1700 | 3800
2 | CCNC(=NC#N)Nc1ccc(-c2nc(N3CCOCC3)c3cnn(C4CCN(Cc5cccnc5)CC4)c3n2)cc1 [Example 408, 2-cyano-1-ethyl-3-(4-{4-morpholin-4-yl-1-[1-(pyridin-3-ylmethyl)piperidin-4-yl]-1H-pyrazolo[3,4-d]pyrimidin-6-yl}phenyl)guanidine] | 916 | 890 | 3200
3 | N#CNC(=O)Nc1ccc(-c2nc(N3CCOCC3)c3cnn(C4CCN(Cc5cccnc5)CC4)c3n2)cc1 [Example 409, N′-cyano-N-(4-{4-morpholin-4-yl-1-[1-(pyridin-3-ylmethyl)piperidin-4-yl]-1H-pyrazolo[3,4-d]pyrimidin-6-yl}phenyl)carbamimidic acid] | 363 | 800 | 2500
4 | COC(=NC#N)Nc1ccc(-c2nc(N3CCOCC3)c3cnn(C4CCN(Cc5cccnc5)CC4)c3n2)cc1 [Example 410, methyl N′-cyano-N-(4-{4-morpholin-4-yl-1-[1-(pyridin-3-ylmethyl)piperidin-4-yl]-1H-pyrazolo[3,4-d]pyrimidin-6-yl}phenyl)imidocarbamate] | 593 | 2200 | 1300
5 | N#CN=C(N)Nc1ccc(-c2nc(N3CCOCC3)c3cnn(C4CCN(C(=O)c5cccnc5)CC4)c3n2)cc1 [Example 411, 2-cyano-1-(4-{4-morpholin-4-yl-1-[1-(pyridin-3-ylcarbonyl)piperidin-4-yl]-1H-pyrazolo[3,4-d]pyrimidin-6-yl}phenyl)guanidine] | 344 | 20000 | 12000
6 | CNC(=NC#N)Nc1ccc(-c2nc(N3CCOCC3)c3cnn(C4CCN(C(=O)c5cccnc5)CC4)c3n2)cc1 [Example 412, 2-cyano-1-methyl-3-(4-{4-morpholin-4-yl-1-[1-(pyridin-3-ylcarbonyl)piperidin-4-yl]-1H-pyrazolo[3,4-d]pyrimidin-6-yl}phenyl)guanidine] | 382 | 3000 | 6000
7 | O=C(Nc1ccc(-c2nc(N3CCOCC3)c3cnn(C4CCN(C(=O)c5cccnc5)CC4)c3n2)cc1)Nc1ccsc1 [Example 414, 1-(4-{4-morpholin-4-yl-1-[1-(pyridin-3-ylcarbonyl)piperidin-4-yl]-1H-pyrazolo[3,4-d]pyrimidin-6-yl}phenyl)-3-(3-thienyl)urea] | 18 | 40 | 100
8 | O=C(Nc1ccc(-c2nc(N3CCOCC3)c3cnn(C4CCN(C(=O)c5cccnc5)CC4)c3n2)cc1)NC1CC1 [Example 415, 1-cyclopropyl-3-(4-{4-morpholin-4-yl-1-[1-(pyridin-3-ylcarbonyl)piperidin-4-yl]-1H-pyrazolo[3,4-d]pyrimidin-6-yl}phenyl)urea] | 357 | 370 | 700
9 | CNC(=O)Nc1ccc(-c2nc(N3CCOCC3)c3cnn(C4CCN(C(=O)c5ccccn5)CC4)c3n2)cc1 [Example 418, 1-methyl-3-(4-{4-morpholin-4-yl-1-[1-(pyridin-2-ylcarbonyl)piperidin-4-yl]-1H-pyrazolo[3,4-d]pyrimidin-6-yl}phenyl)urea] | 124 | 120 | 200
10 | CNC(=O)Nc1ccc(-c2nc(N3CCOCC3)c3cnn(C4CCN(C(=O)c5cnccc5C)CC4)c3n2)cc1 [Example 419, 1-methyl-3-[4-(1-{1-[(4-methylpyridin-3-yl)carbonyl]piperidin-4-yl}-4-morpholin-4-yl-1H-pyrazolo[3,4-d]pyrimidin-6-yl)phenyl]urea] | 231 | 320 | 400
11 | CNC(=O)Nc1ccc(-c2nc(N3CCOCC3)c3cnn(C4CCN(C(=O)c5ccc(C)nc5)CC4)c3n2)cc1 [Example 420, 1-methyl-3-[4-(1-{1-[(6-methylpyridin-3-yl)carbonyl]piperidin-4-yl}-4-morpholin-4-yl-1H-pyrazolo[3,4-d]pyrimidin-6-yl)phenyl]urea] | 119 | 330 | 300
12 | CNC(=O)Nc1ccc(-c2nc(N3CCOCC3)c3cnn(C4CCN(C(=O)c5ccc(F)nc5)CC4)c3n2)cc1 [Example 421, 1-[4-(1-{1-[(6-fluoropyridin-3-yl)carbonyl]piperidin-4-yl}-4-morpholin-4-yl-1H-pyrazolo[3,4-d]pyrimidin-6-yl)phenyl]-3-methylurea] | 100 | 250 | 300
13 | CNC(=O)Nc1ccc(-c2nc(N3CCOCC3)c3cnn(C4CCN(C(=O)c5cnccn5)CC4)c3n2)cc1 [Example 422, 1-methyl-3-(4-{4-morpholin-4-yl-1-[1-(pyrazin-2-ylcarbonyl)piperidin-4-yl]-1H-pyrazolo[3,4-d]pyrimidin-6-yl}phenyl)urea] | 198 | 320 | 400
14 | CNC(=O)Nc1ccc(-c2nc(N3CCOCC3)c3cnn(C4CCN(C(=O)c5cccc(C(C)=O)c5)CC4)c3n2)cc1 [Example 423, 1-(4-{1-[1-(3-acetylbenzoyl)piperidin-4-yl]-4-morpholin-4-yl-1H-pyrazolo[3,4-d]pyrimidin-6-yl}phenyl)-3-methylurea] | 83 | 110 | 200
15 | CNC(=O)Nc1ccc(-c2nc(N3CCOCC3)c3cnn(C4CCN(C(=O)c5ccc(Cl)nc5)CC4)c3n2)cc1 [Example 424, 1-[4-(1-{1-[(6-chloropyridin-3-yl)carbonyl]piperidin-4-yl}-4-morpholin-4-yl-1H-pyrazolo[3,4-d]pyrimidin-6-yl)phenyl]-3-methylurea] | 84 | 150 | 400
16 | CNC(=O)Nc1ccc(-c2nc(N3CCOCC3)c3cnn(C4CCN(Cc5ccccc5C)CC4)c3n2)cc1 [Example 429, 1-methyl-3-(4-{1-[1-(2-methylbenzyl)piperidin-4-yl]-4-morpholin-4-yl-1H-pyrazolo[3,4-d]pyrimidin-6-yl}phenyl)urea] | 51 | 40 | 200
17 | CNC(=O)Nc1ccc(-c2nc(N3CCOCC3)c3cnn(C4CCN(Cc5cccc(C)c5)CC4)c3n2)cc1 [Example 430, 1-methyl-3-(4-{1-[1-(3-methylbenzyl)piperidin-4-yl]-4-morpholin-4-yl-1H-pyrazolo[3,4-d]pyrimidin-6-yl}phenyl)urea] | 42 | 52 | 200
18 | CNC(=O)Nc1ccc(-c2nc(N3CCOCC3)c3cnn(C4CCN(Cc5ccc(C)cc5)CC4)c3n2)cc1 [Example 431, 1-methyl-3-(4-{1-[1-(4-methylbenzyl)piperidin-4-yl]-4-morpholin-4-yl-1H-pyrazolo[3,4-d]pyrimidin-6-yl}phenyl)urea] | 25 | 27 | 100
19 | c1ccc(-n2ncc3c(N4CCOCC4)nc(-c4ccc5[nH]ncc5c4)nc32)cc1 [Example 432, 6-(1H-indazol-5-yl)-4-morpholin-4-yl-1-phenyl-1H-pyrazolo[3,4-d]pyrimidine] | 440 | 20000 | 60000
